Earlier results, collected in patent US20030114497A1 (priority 2001, published 2003).

Columns and labels:
[1] = system: calcium channel; conditions: see WO 95/05822
[2] = system: smooth muscle cell migration; conditions: see WO 95/25722

In the case of `CCOC(=O)C1=C(COCCN)NC(C)=C(C(=O)OC)[C@H]1c1ccccc1Cl` (single isomer, unassigned) [R(+) isomer], the “calcium channel blocking activity” value [1] is given as “little or no calcium channel blocking activity” and the “inhibition of smooth muscle cell migration” value [2] is given as “potent inhibitor”.
